# Assay results as given in ChEMBL document CHEMBL3792387, “A review on ROCK-II inhibitors: From molecular modelling to synthesis” (Bioorg Med Chem Lett, 2016).
# What was measured:
# [1] = biological target: Rho-associated protein kinase 2 (Homo sapiens, UniProt O75116); assay: Inhibition of ROCK-2 (unknown origin)
# [2] = biological target: Rho-associated protein kinase 1 (Homo sapiens, UniProt Q13464); assay: Inhibition of ROCK-1 (unknown origin)
# [3] = Inhibition of PKA (unknown origin); design: species or system Homo sapiens
# [4] = Inhibition of PKA (unknown origin) using cyclic AMP response element binding protein as substrate after 5 mins in presence of [gamma-32P]-ATP; design: species or system Homo sapiens
# Sequence of Rho-associated protein kinase 1 (Q13464 whole entry): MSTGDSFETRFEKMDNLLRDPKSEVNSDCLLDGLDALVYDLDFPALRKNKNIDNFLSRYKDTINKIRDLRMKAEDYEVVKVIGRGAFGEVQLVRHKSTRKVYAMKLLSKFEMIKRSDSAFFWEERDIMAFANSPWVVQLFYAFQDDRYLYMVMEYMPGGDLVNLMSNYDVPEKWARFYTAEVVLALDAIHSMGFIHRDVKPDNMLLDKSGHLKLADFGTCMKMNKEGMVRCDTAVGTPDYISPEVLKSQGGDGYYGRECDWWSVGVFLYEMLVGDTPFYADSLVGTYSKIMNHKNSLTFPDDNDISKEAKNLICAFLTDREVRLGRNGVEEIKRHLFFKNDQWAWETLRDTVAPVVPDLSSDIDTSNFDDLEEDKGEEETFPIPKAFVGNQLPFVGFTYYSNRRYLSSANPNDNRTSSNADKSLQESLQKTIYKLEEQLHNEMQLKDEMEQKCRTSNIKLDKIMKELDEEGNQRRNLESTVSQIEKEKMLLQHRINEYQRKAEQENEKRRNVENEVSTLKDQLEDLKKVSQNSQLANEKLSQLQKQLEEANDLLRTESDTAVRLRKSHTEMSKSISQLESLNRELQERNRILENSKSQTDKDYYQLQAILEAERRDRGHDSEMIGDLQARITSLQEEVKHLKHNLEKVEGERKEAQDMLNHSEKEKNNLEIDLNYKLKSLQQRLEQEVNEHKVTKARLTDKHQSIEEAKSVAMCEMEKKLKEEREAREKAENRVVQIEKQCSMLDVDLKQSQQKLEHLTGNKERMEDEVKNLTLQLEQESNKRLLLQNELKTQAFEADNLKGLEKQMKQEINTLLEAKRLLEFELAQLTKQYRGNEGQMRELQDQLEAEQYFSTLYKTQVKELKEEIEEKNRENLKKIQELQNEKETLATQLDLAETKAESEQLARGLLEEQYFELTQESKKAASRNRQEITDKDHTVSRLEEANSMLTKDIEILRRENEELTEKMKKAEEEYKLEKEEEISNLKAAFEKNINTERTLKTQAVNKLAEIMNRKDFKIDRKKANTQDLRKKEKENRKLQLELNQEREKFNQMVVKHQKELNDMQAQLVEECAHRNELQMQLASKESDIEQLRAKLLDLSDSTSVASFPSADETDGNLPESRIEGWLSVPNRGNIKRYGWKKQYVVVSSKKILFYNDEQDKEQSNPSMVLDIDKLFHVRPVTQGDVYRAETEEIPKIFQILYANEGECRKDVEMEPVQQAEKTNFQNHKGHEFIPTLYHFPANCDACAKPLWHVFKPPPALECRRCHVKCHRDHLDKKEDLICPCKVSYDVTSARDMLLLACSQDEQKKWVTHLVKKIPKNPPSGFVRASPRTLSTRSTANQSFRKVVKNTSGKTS
# Sequence of Rho-associated protein kinase 2 (O75116 whole entry): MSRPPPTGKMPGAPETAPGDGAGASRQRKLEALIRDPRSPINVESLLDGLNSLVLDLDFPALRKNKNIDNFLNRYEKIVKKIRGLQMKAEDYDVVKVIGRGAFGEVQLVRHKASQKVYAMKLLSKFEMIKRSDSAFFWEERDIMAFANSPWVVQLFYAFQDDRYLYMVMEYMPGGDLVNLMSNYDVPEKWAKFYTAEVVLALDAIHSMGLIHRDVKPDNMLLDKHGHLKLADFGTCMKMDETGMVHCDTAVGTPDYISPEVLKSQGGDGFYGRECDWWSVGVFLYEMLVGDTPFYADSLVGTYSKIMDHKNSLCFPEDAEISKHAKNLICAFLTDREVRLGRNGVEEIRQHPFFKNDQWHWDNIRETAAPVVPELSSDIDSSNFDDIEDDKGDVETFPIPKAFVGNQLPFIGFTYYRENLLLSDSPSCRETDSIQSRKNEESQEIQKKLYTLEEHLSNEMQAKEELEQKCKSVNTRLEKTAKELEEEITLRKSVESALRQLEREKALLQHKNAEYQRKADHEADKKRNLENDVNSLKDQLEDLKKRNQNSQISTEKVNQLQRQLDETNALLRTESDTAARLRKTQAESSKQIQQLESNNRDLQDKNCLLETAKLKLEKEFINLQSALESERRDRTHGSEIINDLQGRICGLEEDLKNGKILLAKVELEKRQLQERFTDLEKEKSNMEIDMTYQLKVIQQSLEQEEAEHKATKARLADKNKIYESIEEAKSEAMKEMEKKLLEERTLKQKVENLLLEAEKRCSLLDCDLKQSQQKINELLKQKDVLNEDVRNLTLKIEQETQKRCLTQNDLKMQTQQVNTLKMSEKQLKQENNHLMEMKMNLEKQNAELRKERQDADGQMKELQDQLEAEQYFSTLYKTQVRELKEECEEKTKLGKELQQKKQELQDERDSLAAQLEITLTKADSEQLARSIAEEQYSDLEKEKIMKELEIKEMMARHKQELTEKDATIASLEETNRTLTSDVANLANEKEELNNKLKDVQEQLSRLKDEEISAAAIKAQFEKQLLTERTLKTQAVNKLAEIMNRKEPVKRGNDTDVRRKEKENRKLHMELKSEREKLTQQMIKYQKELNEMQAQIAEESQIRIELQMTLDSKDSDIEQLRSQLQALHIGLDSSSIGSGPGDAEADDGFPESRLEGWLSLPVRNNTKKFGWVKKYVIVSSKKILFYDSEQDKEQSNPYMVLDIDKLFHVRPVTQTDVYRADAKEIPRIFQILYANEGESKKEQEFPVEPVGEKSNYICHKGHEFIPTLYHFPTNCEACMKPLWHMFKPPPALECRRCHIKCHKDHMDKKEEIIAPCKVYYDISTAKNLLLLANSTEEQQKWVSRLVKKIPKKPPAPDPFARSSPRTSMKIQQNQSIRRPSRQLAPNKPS
IC50 [1],IC50 [2],IC50 [3],IC50 [4],Structure (SMILES)
10 nM,30 nM,290 nM,,C[C@@H](N)[C@H]1CC[C@H](C(=O)Nc2ccnc3[nH]ccc23)CC1
,,,3030 nM,Cc1cncc2cccc(S(=O)(=O)N3CCCNC[C@@H]3C)c12
